“Also recorded” adds a separate entry of the source.
Tests used:
[1] = system: mice; conditions: cited from earlier work
[2] = system: mice; conditions: cited from earlier work; remark: listed apart in the source
[3] = system: rats; conditions: cited from earlier work
[4] = system: NMDA receptors; conditions: cited from earlier work
[5] = system: monoamine oxidase; conditions: cited from earlier work
[6] = target: norepinephrine transporter (Homo sapiens, UniProt P23975); conditions: cited from earlier work
[7] = system: Sprague-Dawley rats; test: Acute effects on cocaine intravenous self-administration (Phase I, FR5); assay type: in vivo, rat; conditions: sub-cohort I-b
Method: Adult male Sprague-Dawley rats (300-325 g at arrival) from Harlan Laboratory (Indiana, USA) were used. Upon arrival, the rats were assigned a unique identification numbers (tail marks). Animals were single housed in suspended polycarbonate rat cages with filter tops, and were acclimated for up to 7 days. All rats were examined, handled, and weighed prior to initiation of the study to assure adequate health and suitability. During the course of the study, 12 h/12 h light/dark cycles were maintained. The room temperature was 21-23° C. with a relative humidity maintained at 30-70%. Water was provided ad libitum for the duration of the study.
Cocaine Hydrochloride (Sigma-Aldrich, USA) (1.05 mg/ml which is equivalent to 0.3 mg/kg/infusion under 350 g body weight and 0.1 ml/infusion rate) was dissolved in saline (0.9% NaCl). The formulation was a clear solution.
Mavoglurant (free form) was formulated in 0.5% methylcellulose (MC) at 1, 3 and 10 mg/kg and administered orally at a dose volume of 1 ml/kg 60 minutes prior to test.
Intravenous drug self-administration took place in sound attenuated operant chambers equipped with an exhaust fan (Med Associates, VT). Each chamber contained two levers situated on one wall of the chamber. Only one of the two levers was active (located on the left side). Pressing the active lever caused delivery of reinforcer (food or cocaine). […]

[8] = system: Sprague-Dawley rats; test: Cue-induced reinstatement of the cocaine self-administration response (Phase II); assay type: in vivo, rat; conditions: 10 mg/kg PO, 1 hour prior to test; after 9-day extinction
Method: The methods for food training, catheter surgery, flushing and infusion confirmation were the same as those in Phase I.
Cocaine self-administration training in this stage was conducted in a separate cohort of rats (N=32). The methods of training were the same as those in Phase I, but the cues (light flash plus tone) appeared concurrently during cocaine infusion, and the cue light stayed on during the 20 second timeout period. As in Phase I, rats underwent 15 days of acquisition training.
After a stable rate of cocaine self-administration was achieved, the rats underwent a 9-day extinction procedure, which was similar to acquisition training except that pressing the active lever led to saline infusion instead of cocaine. During extinction sessions no cues were presented after an active lever-press. Rats were all reached the criterion for extinction (number of infusions ≤5, i.e. number of active lever responses <30 in the 1-hour session) in day 9 (last day) of extinction training.
During the reinstatement session, which occurred one day after the last extinction session, rats were presented the cues (flash+tone) at the beginning of the session and their lever-press responses recorded. There was no cocaine infusion during this reinstatement session, subject only received saline on a FR5 schedule. […]

[9] = target: T1, cytochrome P450 1A2 (Homo sapiens, UniProt P05177); conditions: cited from earlier work
T1 sequence (P05177 1-516): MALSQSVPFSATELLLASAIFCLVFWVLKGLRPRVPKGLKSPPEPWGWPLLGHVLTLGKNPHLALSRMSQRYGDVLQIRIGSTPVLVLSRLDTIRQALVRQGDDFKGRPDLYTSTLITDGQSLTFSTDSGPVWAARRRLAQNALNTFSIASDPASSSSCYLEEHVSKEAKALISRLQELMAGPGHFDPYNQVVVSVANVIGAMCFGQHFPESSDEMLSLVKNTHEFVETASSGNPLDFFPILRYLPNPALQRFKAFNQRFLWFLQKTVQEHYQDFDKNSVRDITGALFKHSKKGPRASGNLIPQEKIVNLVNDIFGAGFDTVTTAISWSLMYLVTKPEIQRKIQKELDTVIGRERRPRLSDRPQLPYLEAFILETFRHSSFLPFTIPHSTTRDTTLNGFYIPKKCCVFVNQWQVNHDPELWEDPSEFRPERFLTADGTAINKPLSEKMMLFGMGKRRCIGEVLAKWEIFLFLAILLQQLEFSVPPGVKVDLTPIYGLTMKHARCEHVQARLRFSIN

Chain of norepinephrine transporter (P23975 whole entry, species assumed): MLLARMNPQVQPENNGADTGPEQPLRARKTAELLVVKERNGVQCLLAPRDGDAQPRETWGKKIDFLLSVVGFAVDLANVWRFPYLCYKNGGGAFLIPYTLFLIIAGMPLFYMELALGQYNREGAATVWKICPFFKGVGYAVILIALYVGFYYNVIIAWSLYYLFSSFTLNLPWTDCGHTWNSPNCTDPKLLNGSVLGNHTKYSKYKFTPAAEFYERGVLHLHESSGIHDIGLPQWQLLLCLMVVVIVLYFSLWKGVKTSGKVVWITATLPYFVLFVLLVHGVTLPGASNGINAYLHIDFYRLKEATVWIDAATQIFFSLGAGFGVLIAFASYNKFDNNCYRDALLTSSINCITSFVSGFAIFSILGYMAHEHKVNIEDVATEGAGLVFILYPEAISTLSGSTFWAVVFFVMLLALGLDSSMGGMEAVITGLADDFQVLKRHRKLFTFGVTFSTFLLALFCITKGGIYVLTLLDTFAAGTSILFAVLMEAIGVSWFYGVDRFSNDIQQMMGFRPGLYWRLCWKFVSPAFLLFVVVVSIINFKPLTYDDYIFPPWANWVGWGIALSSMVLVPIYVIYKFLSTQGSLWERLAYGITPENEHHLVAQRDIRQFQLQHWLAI

SMILES	ethanol self-administration [1]	cocaine self-administration [2]	cocaine self-administration [3]	off-target effects on NMDA receptors [4]	off-target effects on monoamine oxidase [5]	off-target effects on the norepinephrine transporter [6]	responding on the active lever (cocaine self-administration) ([7]; 3 mg/kg PO, 60 minutes prior to test, post hoc p<0.10)	responding on the active lever (cocaine self-administration) ([7]; 10 mg/kg PO, 1 hour prior to test, post hoc p<0.001)	cue-induced reinstatement of the self-administration response [8]	ethanol consumption [1]	inhibition of cytochrome P450 1A2 [9]
Cc1cccc(C#Cc2ccccc2)n1 [MPEP, 2-methyl-6-(2-phenylethynyl)pyridine]	decreased ethanol self-administration	decreased cocaine self-administration	decreased cocaine self-administration	off-target effects	off-target effects	off-target effects					
COC(=O)N1CC[C@@H]2[C@H]1CCC[C@@]2(O)C#Cc1cccc(C)c1 [mavoglurant, (−)-(3aR,4S,7aR)-4-Hydroxy-4-m-tolylethynyl-octahydro-indole-1-carboxylic acid methyl ester]							tended to reduce responding on the active lever	significantly reduced responding; also recorded: significantly reduced cocaine self-administration	cue-induced reinstatement was suppressed; also recorded: completely prevented cue-induced reinstatement		
Cc1nc(C#Cc2cccnc2)cs1 [MTEP, 3-[2-(2-methylthiazol-4-yl)ethynyl]pyridine]	decreased ethanol self-administration		decreased cocaine self-administration							decreased ethanol consumption	potent inhibition
